Measurements as given in patent publication US20150079105A1, “TREATMENT OF ACUTE INFLAMMATION IN THE RESPIRATORY TRACT” (UCL Business PLC, priority 2012, published 2015).
“Also recorded” adds a separate entry of the source.

Columns and labels:
Format in all cases: in vivo
[1] = system: TNF, IL-6, CXCL1, CXCL2, CCL2, CCL7; test: Cytokine and chemokine protein levels in lung homogenates of LPS challenged mice (Luminex bead array, ELISA); conditions: 5 mg/kg i.p. 30 min after LPS, 3 h
Description: FIG. 8. Mice were killed three hours after LPS (125 μg/kg i.n.) or saline challenge with or without the PAR1 antagonist RWJ-58259 (5 mg/kg) dosed i.p. after 30 min. Lungs were removed and homogenized. Levels of TNF (A), IL-6 (B) CXCL1 (C), and CXCL2 (D) protein were measured in lung homogenates using a Luminex bead array. Protein levels of CCL2 (H) and CCL7 (I) were measured from lung homogenates by ELISA. Mean and sem values of n=5 per group are shown. Data were analysed by one way ANOVA with Newman-Keuls post hoc test: ***p<0.001, **p<0.01, *p<0.05. […]
Cytokine and chemokine levels were measured by ELISA.
In order to confirm the LDA analysis of mRNA expression, the level of protein in lung homogenates was measured.

LPS challenged mice = test: LPS-induced acute lung inflammation in mice: BAL fluid cell counts, MPO, serum albumin
S. pneumoniae = S. pneumoniae challenge of mice (bacteria-induced ALI and host defense); conditions: 5 mg/kg i.p. after 30 min
Description: FIG. 4. Mice were killed three hours after inoculation with S. pneumoniae (serotype 19, 50 μl/mouse, 5×10^6 CFU/mouse i.n.) with and without the PAR1 antagonist RWJ-58259 (5 mg/kg) dosed therapeutically i.p. after 30 min. Lungs were lavaged (1.5 ml PBS total) and total BAL fluid leukocytes (a) and neutrophils (b) were quantified. S. pneumoniae was recovered from lung homogenates and individual colonies counted (c). Panels show mean values for n=5/group from two separate experiments. Data were analysed by one way ANOVA with Neuman-Keuls Post Hoc test: ***p<0.0001, *p<0.05.
FIG. 5. Mice were killed three hours after inoculation with S. pneumoniae (serotype 2, clinical isolate D39, 50 μl/mouse, 5×10^6 CFU/mouse i.n.) with and without the PAR1 antagonist RWJ-58259 (5 mg/kg) dosed therapeutically i.p. after 30 min. Lungs were lavaged (1.5 ml PBS total) and total BAL fluid leukocytes (A), macrophages (B) and neutrophils (C) were quantified. Bronchoalveolar lavage fluid was collected and levels of thrombin-anti-thrombin (TAT) and serum albumin were quantified by ELISA (D and E). Panels show mean values for n=5/group from two separate experiments. Data were analysed by one way ANOVA with Neuman-Keuls Post Hoc test: ***p<0.0001, *p<0.05.
FIG. 6. Mice were killed three hours after inoculation with S. pneumoniae (serotype 2, clinical isolate D39, 50 μl/mouse, 5×10^6 CFU/mouse i.n.) with and without the PAR1 antagonist RWJ-58259 (5 mg/kg) dosed therapeutically i.p. after 30 min. Lungs were lavaged (1.5 ml PBS total) and bacterial colony forming units (cfu) counted after 3 h (A) and 24 h (B). Bacterial invasive disease was measured by cfu in the lung (C) and spleen (D) after 24 h. Data were analysed by one way ANOVA with Neuman-Keuls Post Hoc test: n.s. not significant. […]
In order to examine the influence of PAR1 during host defense and in a model of bacteria-induced ALI, mice were challenged with S. pneumoniae (5×10^6 CFU/mouse, i.n.), which is the most common infectious agent responsible for ALI. Mice were inoculated with 50 μl S. pneumoniae (serotype 19, 5×10^6 CFU/mouse i.n.). 3 hours later, animals were sacrificed (urethane i.p. […]), endotracheally cannulated and bronchoalveolar lavage performed (1.5 ml, PBS). Total and differential counts were quantified following cytospin and albumin levels measured by ELISA (Bethyl Laboratories Inc, USA).
PAR1 antagonism was also found to decrease the number of BAL macrophages (FIG. 5b). Bronchoalveolar lavage fluid was collected and levels of thrombin-anti-thrombin (TAT) and serum albumin were quantified by ELISA (FIG. 4d, e). […] Panels show mean values for n=5/group from two separate experiments. Data were analysed by one way ANOVA with Neuman-Keuls Post Hoc test: ***p<0.0001, *p<0.05. […]

CCL7, Gr-1+ neutrophils = test: Immunohistochemical staining of CCL7 and Gr-1 in lung sections of LPS challenged mice; conditions: 5 mg/kg 30 min after LPS; lungs fixed after 3 h
Description: FIG. 16. Mice were challenged with 125 μg/kg LPS (i.n.) and whole lungs inflated and fixed after 3 h. Immunohistochemical staining of CCL7 (a, b an c) or Gr-1 (d, e and f) was compared between saline treated controls and LPS challenged mice with or without treatment with the PAR1 antagonist RWJ-58259 (5 mg/kg) dosed therapeutically after 30 min. [AEW]. Endothelial-epithelial barrier disruption was measured by ELISA as the amount of serum albumin in BAL fluid from mice three hours after LPS (125 μg/kg i.n.) challenge (g) or S. pneumoniae challenge (h) with and without the PAR1 antagonist RWJ-58259 (5 mg/kg) dosed therapeutically i.p. after 30 min.
The observation that neutrophil migration downstream of PAR1 activation was mediated by the non-classical neutrophil chemokine, CCL7, was unexpected. In order to determine the cellular source of CCL7 the immunolocalization of CCL7 and Gr-1+ neutrophils in serial lung sections from saline treated and LPS-challenged mice was examined. In saline treated control lung, there was weak CCL7 staining which was mainly restricted to the bronchial epithelium (FIG. 16a). […] Only weak immunolocalization was detected in the alveolar epithelium. […] Gr-1 specific immunostaining was next performed in order to detect neutrophils in serial lung sections. No Gr-1 staining could be detected in saline treated controls (FIG. 16d). […]

[2] = 5 mg/kg i.p. 30 min after LPS 125 μg/kg i.n., 3 h after LPS, vs LPS alone
[3] = 5 mg/kg i.p. 30 min after LPS, 3 h
[4] = serotype 2, D39, after 24 hours
[5] = serotype 19, 5×10^6 CFU/mouse i.n., 3 h

## NCC[C@H](NC(=O)[C@H](Cc1ccc(F)c(F)c1)NC(=O)Nc1ccc2c(CN3CCCC3)nn(Cc3c(Cl)cccc3Cl)c2c1)C(=O)NCc1ccccc1 [RWJ-58259]
[1]
  CCL2 protein level in lung homogenates: decreased
  CCL7 protein level in lung homogenates: decreased
[1]; listed as PAR1 antagonist
  CXCL1 protein level in lung homogenates: unaffected; also recorded: not affected
  CXCL2 protein level in lung homogenates: unaffected; also recorded: not affected
  IL-6 protein level in lung homogenates: did not attenuate; also recorded: not affected
  TNF protein level in lung homogenates: did not attenuate; also recorded: not affected
LPS challenged mice; [2]
  neutrophil numbers in the airspaces (BAL fluid): significantly decreased
  total cell numbers in the airspaces (BAL fluid): significantly decreased
LPS challenged mice; [3]
  Gr-1+(F4/80−) neutrophils recovered from BAL fluid and whole lung preparations, flow cytometry: a decrease
  LPS-induced neutrophil myeloperoxidase activity in lung homogenates: reduced
  macrophage numbers in BAL fluid: remained unchanged
LPS challenged mice; 5 mg/kg i.p. 30 min after LPS, 3 h, vs LPS alone, listed as PAR1 antagonist
  serum albumin levels in BAL fluid (alveolar-capillary barrier disruption): significantly decreased; also recorded: significantly reduced
LPS challenged mice; 5 mg/kg i.p. 30 min after LPS, 6 h following LPS challenge
  neutrophil recruitment: reduced
LPS challenged mice; 5 mg/kg i.p. 30 min after LPS, 24 h following LPS challenge
  neutrophil recruitment: reduced
S. pneumoniae; serotype 2, D39, 3 h
  PAR1 mediated disruption of the alveolar-capillary barrier (TAT and serum albumin in BAL fluid by ELISA): reduce
  number of BAL macrophages: decrease
S. pneumoniae; serotype 2, D39, 24 hours
  S. pneumoniae colony counts recovered from BALF: unaffected
S. pneumoniae; [4]
  bacterial invasive disease, cfu in the lung: unaffected
  bacterial invasive disease, cfu in the spleen: unaffected
S. pneumoniae; serotype 2, D39, after three hours
  S. pneumoniae colony counts recovered from BALF: unaffected
S. pneumoniae; [5]
  neutrophil accumulation (BAL fluid): reduced
  total cellular infiltration (BAL fluid leukocytes): reduced
S. pneumoniae; serotype 19, 3 h
  S. pneumoniae colony counts recovered from whole lung (host defense): unaffected
S. pneumoniae; serotype not stated, 3 h
  BAL fluid serum albumin following S. pneumoniae challenge: decreased
CCL7, Gr-1+ neutrophils
  Gr-1 immunoreactivity in lung sections: decreased
  LPS-induced CCL7 immunoreactivity in lung sections: reduced
